Source: patent US5892099A, “3,7-dithiaprostanoic acid derivative” (Ono Pharmaceutical Co., Ltd., priority 1997, dated 1999)

Legend:
[1] = biological target: T1, mouse EP4 (Mus musculus, UniProt P32240); test: Binding assay using expression cell of the prostanoid receptor subtype (EP4), competition of specific 3H-PGE2 binding; conditions: membrane fraction of EP4 expressing CHO cells; 2.5 nM 3H-PGE2; pH 6.0; 1 hour at room temperature; read-out: Dissociation constant for EP4 Ki
T1 construct: expressed in transfected cells; host or cells: CHO cells
T1 sequence (P32240 whole entry): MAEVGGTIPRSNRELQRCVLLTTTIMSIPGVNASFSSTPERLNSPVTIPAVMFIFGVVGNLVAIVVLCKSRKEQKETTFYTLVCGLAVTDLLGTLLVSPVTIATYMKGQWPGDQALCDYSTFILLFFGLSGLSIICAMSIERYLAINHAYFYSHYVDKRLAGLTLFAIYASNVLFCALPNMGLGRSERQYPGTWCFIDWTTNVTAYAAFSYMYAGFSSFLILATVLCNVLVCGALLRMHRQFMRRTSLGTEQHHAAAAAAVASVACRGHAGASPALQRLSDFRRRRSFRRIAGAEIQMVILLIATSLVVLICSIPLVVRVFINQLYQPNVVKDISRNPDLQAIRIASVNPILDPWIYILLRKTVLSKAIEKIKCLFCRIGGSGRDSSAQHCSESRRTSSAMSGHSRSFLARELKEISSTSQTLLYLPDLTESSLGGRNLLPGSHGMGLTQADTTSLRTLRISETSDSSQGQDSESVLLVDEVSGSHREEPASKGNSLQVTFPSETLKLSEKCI
Protocol: (§1) (I) Binding assay using expression cell of the prostanoid receptor subtype
(§2) The preparation of membrane fraction was carried out according to the method of Sugimoto et al (J. Biol. Chem. 267, 6463-6466 (1992)) using the prostanoid receptor subtypes (mouse EP3α, EP4) expressing CHO cells.
(§3) The standard assay mixture containing membrane fraction (0.5 mg/ml) and ^3 H-PGE2 in a final volume of 200 μl was incubated for 1 hour at room temperature. The reaction was terminated by the addition of 3 ml of ice-cold buffer. The mixture was rapidly filtered through a GF/B glass filter. The radioactivity associated with the filter was measured by liquid scintillation counting.
(§4) Kd and Bmax value were determined from Scatchard plots (Ann. N. Y. Sci., 51, 660 (1949)). Non-specific binding was calculated as the bound in the presence of an excess (2.5 μM) of unlabeled PGE2.
(§5) In the experiment for competition of specific ^3 H-PGE2 binding by the compounds of the present invention, 2.5 nM of ^3 H-PGE2 and various concentration of the compounds of the present invention were added. The following buffer was used in all reactions. Buffer: 10 mM potassium phosphate (pH 6.0), 1 mM EDTA, 10 mM MgCl2, 0.1M NaCl. The dissociation constant (Ki) of each compound was calculated by the following equation.

[2] = biological target: T2, mouse EP3α (Mus musculus, UniProt P30557); test: Binding assay using expression cell of the prostanoid receptor subtype (EP3α), competition of specific 3H-PGE2 binding; conditions: membrane fraction of EP3α expressing CHO cells; 2.5 nM 3H-PGE2; pH 6.0; 1 hour at room temperature; read-out: Dissociation constant for EP3α Ki
T2 construct: expressed in transfected cells; host or cells: CHO cells
T2 sequence (P30557 1-365): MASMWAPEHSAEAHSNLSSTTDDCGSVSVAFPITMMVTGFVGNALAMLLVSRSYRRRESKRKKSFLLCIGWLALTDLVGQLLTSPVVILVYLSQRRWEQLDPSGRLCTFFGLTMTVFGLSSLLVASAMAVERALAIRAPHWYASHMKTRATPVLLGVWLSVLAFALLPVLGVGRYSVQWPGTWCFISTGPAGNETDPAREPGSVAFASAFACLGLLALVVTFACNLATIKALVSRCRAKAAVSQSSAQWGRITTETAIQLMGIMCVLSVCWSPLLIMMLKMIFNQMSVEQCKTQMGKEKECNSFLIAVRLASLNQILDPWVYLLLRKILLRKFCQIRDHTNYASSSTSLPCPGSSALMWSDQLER
Protocol: as §1, §2, §3, §4, §5

| Ki [1] [nM] | Ki [2] [nM] | SMILES |
| --- | --- | --- |
| 7 | 130 | O=C(O)CSCCCSC1C(=O)CC(O)C1/C=C/C(O)Cc1ccccc1 (stereo not drawn) [Example 2(f), 11α,15α-dihydroxy-9-oxo-16-phenyl-17,18,19,20-tetranor-3,7-dithiaprost-13E-enoic acid] |
| 6 | – | O=C(O)CSCCCSC1C(=O)CC(O)C1/C=C/C(O)CCc1ccccc1 (stereo not drawn) [Example 2(g), 11α,15α-dihydroxy-9-oxo-17-phenyl-18,19,20-trinor-3,7-dithiaprost-13E-enoic acid] |
| 1.4 | 23 | CCCCC(O)/C=C/C1C(O)CC(=O)C1SCCCSCC(=O)O (stereo not drawn) [Example 2(m), 11α,15α-dihydroxy-9-oxo-3,7-dithia-20-norprost-13E-enoic acid] |
| 0.4 | – | O=C(O)CSCCCSC1C(=O)CC(O)C1/C=C/C(O)CCCC1CC1 (stereo not drawn) [Example 2(q), 11α,15α-dihydroxy-9-oxo-19,20-methano-3,7-dithiaprost-13E-enoicacid] |
| 0.7 | 1500 | CCCCCC(O)/C=C/C1C(O)CC(=O)C1SCCCSCC(=O)O (stereo not drawn) [Example 2, 11α,15α-dihydroxy-9-oxo-3,7-dithiaprost-13E-enoic acid] |

Further lines, the compound ahead of its results:

| SMILES | Ki [1] [nM] | Ki [2] [nM] |
| --- | --- | --- |
| CCCCC(C)CC(O)/C=C/C1C(O)CC(=O)C1SCCCSCC(=O)O (stereo not drawn) [Example 2(a), 11α,15α-dihydroxy-9-oxo-17β,20-dimethyl-3,7-dithiaprost-13E-enoic acid] | 0.8 | 10 |
| CCCC[C@H](C)C[C@H](O)/C=C/[C@H]1[C@H](O)CC(=O)[C@@H]1SCCCSCC(=O)O [Example 2(b), 11α,15α-dihydroxy-9-oxo-17α,20-dimethyl-3,7-dithiaprost-13E-enoic acid] | 0.6 | – |
| CCCCC(C)(O)C/C=C/C1C(O)CC(=O)C1SCCCSCC(=O)O (stereo not drawn) [Example 2(c), 11α,16β-dihydroxy-9-oxo-16α-methyl-3,7-dithiaprost-13E-enoic acid] | 5.6 | – |
| CCCCC[C@H](O)CC[C@@H]1C(SCCCSCC(=O)O)C(=O)C[C@H]1O (stereo partly drawn) [Example 2(d), 11α,15α-dihydroxy-9-oxo-3,7-dithiaprostanoic acid] | 1.6 | – |
| CC/C=C\CC(O)/C=C/C1C(O)CC(=O)C1SCCCSCC(=O)O (stereo not drawn) [Example 2(e), 11α,15α-dihydroxy-9-oxo-3,7-dithiaprost-13E,17Z-dienoic acid] | 0.91 | – |
| O=C(O)CSCCCS[C@H]1C(=O)C[C@@H](O)[C@@H]1/C=C/[C@@H](O)C1CCCCC1 [Example 2(h), 11α,15α-dihydroxy-9-oxo-15-cyclohexyl-3,7-dithia-16,17,18,19,20-pentanorprost-13E-enoic acid] | 22 | 610 |
| CCCCC[C@](C)(O)/C=C/[C@H]1[C@H](O)CC(=O)[C@@H]1SCCCSCC(=O)O [Example 2(k), 11α,15α-dihydroxy-9-oxo-15β-methyl-3,7-dithiaprost-13E-enoic acid] | 0.7 | 34 |
| CCCC[C@H](C)[C@H](O)/C=C/[C@@H]1C(SCCCSCC(=O)O)C(=O)C[C@H]1O (stereo partly drawn) [Example 2(o), 11α,15α-dihydroxy-9-oxo-16β-methyl-3,7-dithiaprost-13E-enoic acid] | 0.2 | 25 |
| O=C(O)CSCCCSC1C(=O)CC(O)C1/C=C/C(O)CC1CCCC1 (stereo not drawn) [Example 2(t), 11α,15α-dihydroxy-9-oxo-16-cyclopentyl-3,7-dithia-17,18,19,20-tetranorprost-13E-enoic acid] | 4.2 | – |
